Legend:
[1] = pure liquids at 25° C.; cited from earlier work
Mucin = assay: Mucoadhesion, tensile strength with texture analyzer, towards mucin; conditions: upper sample Mucin
Description: Mucoadhesion is related to the ability to adhere to the mucosa. […] Hygroscopic formulations absorbs water molecules but at different timescales depending on the composition. Tensile strength using micro balance texture analyzer was used to measure the mucoadhesion. The work needed to separate two layers from each other is calculated as well as the peak measured force.
The microemulsions show quite strong mucoadhesion, with similar tensile strength values. To get some reference values, the mucoadhesion of olive oil, propylene glycol and PGMO were also tested as well as the adhesion of microemulsions towards water. Propylene glycol was chosen to determine if humectant properties on its own had any influence on the adhesion strength.

SMILES	Surface tension [1]	Peak force (Mucin)	Mucoadhesion (Mucin; work needed to separate layers)
CC(O)CO (stereo not shown) [Propylene Glycol, propylene glycol]	45.6 mN/m	0.50 ± 0.05 kg	0.051 ± 0.009 kg·s
OCC(O)CO [glycerol]	76 mN/m	–	–

— patent publication US20170319641A1, “MUCOADHESIVE EMOLLIENT” (BIOGLAN AB, priority 2014, published 2017)
